This is an account of results in patent US9840509B2, “Heterocyclic compounds” (CADILA HEALTHCARE LIMITED, priority 2014, dated 2017).

One data set has as its target T1, CYP 2C19 (Homo sapiens, UniProt P33261).
T1 construct: from tissue; host or cells: human liver microsomes
As to the kind of experiment: CYP inhibition in human liver microsomes, 2C19. Format: in vitro ADME. The note with it: pH 7.4, @ 10 μM concn. The procedure: (§1) CYP Inhibition Studies: CYP inhibition studies were performed with test compounds, at two concentrations ([…] and 10 μM), using human liver microsomes (Yao, M., Zhu, M., Sinz, M. W., Zhang, H., Humphreys, W. F., Rodrigues, A. D and Dai, R., Journal of Pharmaceutical and Biomedical Analysis, 2007, 44, 211-223; Walsky, R. L and Obach, R. S., Drug Metab. Dispos., 2004, 32, 647-660). Human liver microsomes were mixed with 100 mM phosphate buffer (pH 7.4) and probe substrate and warmed to […] in microcentrifuge tubes. Aliquots of this mixture (499 μL) were transferred to each pre-labeled microcentrifuge tubes, followed by addition of the 1 μL of inhibitors (test compound/CYP-specific positive control inhibitor) or control solvent (DMSO). Aliquots of this mixture (90 μL) were transferred to each pre-labeled microcentrifuge tubes in duplicate. Final solvent concentrations were 0.2% (v/v) or less. Incubations were commenced with the addition of 10 μL NADPH stock (assay concentration, 1 mM) to a final incubation volume of 100 μL and incubated in shaking water bath (at 37° C. and 100 rpm), for the period defined in Tables 1. Incubations were terminated by addition of 400 μL of termination solvent (CH3CN) containing internal standard. The terminated samples were vortex-mixed, centrifuged at 10000 rpm for 5 min and supernatant transferred into HPLC vials for LC-MS/MS analysis to monitor metabolites produced by marker CYP reactions. […] Animals
On the technique in general: Microsomes from liver hold many membrane-bound enzymes, among them those of drug oxidation.

A further data set has as its target T2, CYP 2C8 (Homo sapiens, UniProt P10632).
T2 construct: from tissue; host or cells: human liver microsomes
T2 sequence (P10632 1-490): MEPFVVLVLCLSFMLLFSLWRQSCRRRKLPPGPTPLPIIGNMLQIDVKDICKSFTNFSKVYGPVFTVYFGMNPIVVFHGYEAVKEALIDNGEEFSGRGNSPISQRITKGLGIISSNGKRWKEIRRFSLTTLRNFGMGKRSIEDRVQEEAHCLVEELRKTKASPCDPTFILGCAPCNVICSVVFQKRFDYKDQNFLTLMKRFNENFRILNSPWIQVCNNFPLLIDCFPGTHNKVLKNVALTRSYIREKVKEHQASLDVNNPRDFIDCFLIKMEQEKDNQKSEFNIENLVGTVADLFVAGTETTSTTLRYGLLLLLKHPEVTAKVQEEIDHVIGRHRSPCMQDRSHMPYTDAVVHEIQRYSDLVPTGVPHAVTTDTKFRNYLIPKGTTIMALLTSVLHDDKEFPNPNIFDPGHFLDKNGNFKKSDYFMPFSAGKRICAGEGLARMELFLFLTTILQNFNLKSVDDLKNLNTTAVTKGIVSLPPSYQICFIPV
The data set can be described thus: CYP inhibition in human liver microsomes, 2C8. The data set is classed as in vitro ADME. To be noted: pH 7.4, @ 10 μM concn. As for the experimental part:
as §1

Another data set deals with T3, CYP 2D6 (Homo sapiens, UniProt P10635).
T3 construct: from tissue; host or cells: human liver microsomes
T3 sequence (P10635 whole entry): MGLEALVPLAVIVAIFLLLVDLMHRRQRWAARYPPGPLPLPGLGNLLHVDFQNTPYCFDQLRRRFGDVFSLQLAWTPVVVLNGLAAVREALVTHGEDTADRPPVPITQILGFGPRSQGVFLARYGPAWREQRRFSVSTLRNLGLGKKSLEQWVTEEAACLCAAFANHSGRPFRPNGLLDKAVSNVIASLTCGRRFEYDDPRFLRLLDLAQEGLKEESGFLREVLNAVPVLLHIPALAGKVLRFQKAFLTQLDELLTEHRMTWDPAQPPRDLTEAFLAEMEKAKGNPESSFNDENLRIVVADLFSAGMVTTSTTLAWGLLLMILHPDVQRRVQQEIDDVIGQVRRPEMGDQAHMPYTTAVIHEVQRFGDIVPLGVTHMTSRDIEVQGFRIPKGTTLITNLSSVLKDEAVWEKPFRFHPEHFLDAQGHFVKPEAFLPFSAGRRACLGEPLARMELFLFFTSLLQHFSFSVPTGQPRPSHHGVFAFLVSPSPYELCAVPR
As to the kind of experiment: CYP inhibition in human liver microsomes, 2D6. Format: in vitro ADME. The note with it: pH 7.4, @ 10 μM concn. As for the experimental part: as §1

The next data set addresses T4, CYP 3A4 (Homo sapiens, UniProt P08684).
T4 construct: from tissue; host or cells: human liver microsomes
The data set can be described thus: CYP inhibition in human liver microsomes, 3A4. The data set is classed as in vitro ADME. The note with it: pH 7.4, @ 10 μM concn. The procedure: as §1

The target of another data set is T5, CYP 2C9 (Homo sapiens, UniProt P11712).
T5 construct: from tissue; host or cells: human liver microsomes
T5 sequence (P11712 whole entry): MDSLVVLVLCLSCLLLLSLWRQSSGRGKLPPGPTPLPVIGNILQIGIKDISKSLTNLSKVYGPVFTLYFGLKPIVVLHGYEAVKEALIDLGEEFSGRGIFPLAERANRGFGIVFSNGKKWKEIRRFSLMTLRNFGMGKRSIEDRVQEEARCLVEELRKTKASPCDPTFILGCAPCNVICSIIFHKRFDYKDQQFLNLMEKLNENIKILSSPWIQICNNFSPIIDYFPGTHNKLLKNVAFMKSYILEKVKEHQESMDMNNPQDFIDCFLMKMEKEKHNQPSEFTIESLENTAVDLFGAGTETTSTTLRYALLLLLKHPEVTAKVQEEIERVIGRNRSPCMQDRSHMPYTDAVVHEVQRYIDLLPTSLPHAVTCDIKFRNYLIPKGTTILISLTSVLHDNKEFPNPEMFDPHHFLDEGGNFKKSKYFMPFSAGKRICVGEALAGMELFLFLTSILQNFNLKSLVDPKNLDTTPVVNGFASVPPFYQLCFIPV
As to the kind of experiment: CYP inhibition in human liver microsomes, 2C9. The data set is classed as in vitro ADME. The note with it: pH 7.4, @ 10 μM concn. As for the experimental part:
as §1

The target in data set [1] is T6, recombinant purified human BTK (Homo sapiens, UniProt Q06187).
T6 construct: purchased SignalChem, USA
T6 sequence (Q06187 whole entry): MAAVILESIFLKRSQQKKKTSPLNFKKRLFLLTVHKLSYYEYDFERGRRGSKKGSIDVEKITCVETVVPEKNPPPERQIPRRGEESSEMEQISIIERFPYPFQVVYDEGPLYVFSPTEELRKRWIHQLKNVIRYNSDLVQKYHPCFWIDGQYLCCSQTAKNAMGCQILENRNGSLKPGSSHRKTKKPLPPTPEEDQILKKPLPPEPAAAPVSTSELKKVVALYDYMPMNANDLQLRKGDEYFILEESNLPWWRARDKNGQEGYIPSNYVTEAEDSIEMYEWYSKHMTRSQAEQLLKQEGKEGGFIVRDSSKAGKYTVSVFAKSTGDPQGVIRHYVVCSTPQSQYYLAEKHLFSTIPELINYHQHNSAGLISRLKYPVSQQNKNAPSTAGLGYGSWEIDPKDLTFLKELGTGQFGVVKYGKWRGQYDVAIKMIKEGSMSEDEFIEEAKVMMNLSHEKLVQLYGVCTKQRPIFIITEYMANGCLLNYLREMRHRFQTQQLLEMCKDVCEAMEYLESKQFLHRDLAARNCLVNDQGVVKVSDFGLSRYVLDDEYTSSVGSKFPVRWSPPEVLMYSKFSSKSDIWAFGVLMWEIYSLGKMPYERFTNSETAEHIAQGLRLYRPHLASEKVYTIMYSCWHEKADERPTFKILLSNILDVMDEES
As to the kind of experiment: In vitro BTK kinase assay on ADP Glo platform. Format: biochemical. The note with it: 2 hr room temperature, read-out: In-vitro BTK inhibitory activity: IC50. As for the experimental part: Testing of Compounds of the Invention Biological Studies: In vitro BTK Inhibitory Activity Assay:
In vitro BTK inhibitory activity of test compounds were screened using BTK kinase assay on ADP Glo platform (Li, H., Totoritis, R. D., Lor, L. A., Schwartz, B., Caprioli, P., Jurewicz, A. J and Zhang, G., Assay Drug Dev. Technol., 2009, 7(6), 598-605). Briefly, fixed amount of recombinant purified human BTK (3 ng/reaction from SignalChem, USA) were incubated with increasing concentration of test compounds, in 1× kinase reaction buffer (40 mM Tris-Cl, pH7.5, 20 mM MgCl2, 2 mM MnCl2, 0.1 mg/ml BSA and 50 μM DTT). Enzymatic reaction was initiated by adding a substrate cocktail containing 50 µM of ATP (final concentration) and […] of polyGln4Tyr1 (Signal Chem) in total 25 μl of reaction, in round bottom white 96 well plate. The reaction mixture was incubated at room temperature for 2 hr. After 2 hr of incubation, 10 μl of the reaction mix was mixed with […] of ADP Glo reagent, in another round bottom white 96 well plate and incubated at room temperature for 40 min. This was followed by addition of kinase detection reagent (20 μl per reaction) and incubation at room temperature for 30 min. Finally, plate was read for luminescence at an integration time of 500 millisecond per well. Data were plotted taking Enzyme with no inhibitor set as the 100% kinase activity and for dose response curve, % Kinase activity was plotted against conc on Log scale and IC50 was determined by non linear curve fitting method using GraphPad Prism software 6. The in vitro BTK inhibitory activity (IC50) for representative compounds are listed in […]
Background: ADP-Glo turns the ADP formed in a reaction into a luminescent signal.

The target in a further data set is T7, CYP 1A2 (Homo sapiens, UniProt P05177).
T7 construct: from tissue; host or cells: human liver microsomes
T7 sequence (P05177 1-516): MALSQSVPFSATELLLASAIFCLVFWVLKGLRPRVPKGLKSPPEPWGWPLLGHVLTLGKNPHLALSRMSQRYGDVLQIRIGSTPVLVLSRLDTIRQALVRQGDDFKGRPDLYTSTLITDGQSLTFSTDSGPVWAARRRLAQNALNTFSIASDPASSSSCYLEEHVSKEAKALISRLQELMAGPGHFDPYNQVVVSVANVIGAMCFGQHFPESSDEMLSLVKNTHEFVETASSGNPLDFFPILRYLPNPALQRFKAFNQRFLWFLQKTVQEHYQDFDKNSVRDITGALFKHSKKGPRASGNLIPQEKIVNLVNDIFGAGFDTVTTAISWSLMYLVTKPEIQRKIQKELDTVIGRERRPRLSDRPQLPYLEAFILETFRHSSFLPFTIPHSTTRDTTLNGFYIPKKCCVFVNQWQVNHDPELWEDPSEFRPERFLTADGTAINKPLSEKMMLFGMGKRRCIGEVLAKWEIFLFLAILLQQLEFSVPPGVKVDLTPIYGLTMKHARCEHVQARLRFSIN
As to the kind of experiment: CYP inhibition in human liver microsomes, 1A2. The data set is classed as in vitro ADME. To be noted: pH 7.4, @ 10 μM concn. The procedure: as §1

Some results are limits rather than exact numbers.

T1 sequence (P33261 whole entry): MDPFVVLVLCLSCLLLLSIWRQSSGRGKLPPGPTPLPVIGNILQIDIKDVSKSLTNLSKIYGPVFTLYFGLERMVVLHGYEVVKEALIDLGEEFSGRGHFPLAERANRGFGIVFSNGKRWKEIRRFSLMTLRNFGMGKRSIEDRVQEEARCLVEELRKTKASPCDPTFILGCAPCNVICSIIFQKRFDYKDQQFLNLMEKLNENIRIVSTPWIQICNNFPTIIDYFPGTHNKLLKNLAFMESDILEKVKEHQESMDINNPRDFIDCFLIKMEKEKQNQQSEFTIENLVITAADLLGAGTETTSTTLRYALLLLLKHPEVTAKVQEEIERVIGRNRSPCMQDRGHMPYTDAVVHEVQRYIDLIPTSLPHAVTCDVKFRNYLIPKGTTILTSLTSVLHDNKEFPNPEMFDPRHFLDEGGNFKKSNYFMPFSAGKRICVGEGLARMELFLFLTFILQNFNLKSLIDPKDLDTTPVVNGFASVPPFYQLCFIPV
T4 sequence (P08684 whole entry): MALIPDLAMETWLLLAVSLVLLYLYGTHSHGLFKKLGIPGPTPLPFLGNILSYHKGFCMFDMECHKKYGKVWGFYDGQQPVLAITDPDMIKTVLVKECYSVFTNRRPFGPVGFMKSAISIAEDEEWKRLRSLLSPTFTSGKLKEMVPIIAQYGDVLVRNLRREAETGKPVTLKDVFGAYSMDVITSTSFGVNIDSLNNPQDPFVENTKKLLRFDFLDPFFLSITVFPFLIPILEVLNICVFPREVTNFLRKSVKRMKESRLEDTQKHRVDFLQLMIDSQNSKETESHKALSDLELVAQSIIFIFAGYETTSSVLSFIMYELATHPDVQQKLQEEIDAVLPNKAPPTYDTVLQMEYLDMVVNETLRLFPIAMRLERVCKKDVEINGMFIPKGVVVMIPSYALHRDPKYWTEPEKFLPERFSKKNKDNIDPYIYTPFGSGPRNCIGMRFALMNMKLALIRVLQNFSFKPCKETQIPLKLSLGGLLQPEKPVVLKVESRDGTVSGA

In general, inhibition refers to the change of the read-out against control, counted positive when it falls. The IC50 is the concentration that gives 50% inhibition. For `C=CC(=O)N1CC2CC(n3nc(-c4ccc(Oc5ccccc5)cc4)c4c(N)ncnc43)CC2C1` (stereo not drawn) [Compound 1, 1-(5-(4-amino-3-(4-phenoxyphenyl)-1H-pyrazolo[3,4-d]pyrimidin-1-yl)hexahydrocyclopenta[c]pyrrol-2(1H)-yl)prop-2-en-1-one], the inhibition at 10 μM against CYP 2C19, against CYP 2C8, on CYP 2D6, at CYP 3A4, against CYP 2C9 and at CYP 1A2 was < 50% in each case. Besides, the IC50 in data set [1] worked out at 1.3 nM.
For `CN(C)C/C=C/C(=O)N1CC2CC(n3nc(-c4ccc(C(=O)Nc5ccccn5)cc4)c4c(N)ncnc43)CC2C1` (stereo not drawn) [Compound 44, (E)-4-(4-amino-1-(2-(4-(dimethylamino)but-2-enoyl)octahydrocyclopenta [c]pyrrol-5-yl)-1H-pyrazolo[3,4-d]pyrimidin-3-yl)-N-(pyridin-2-yl) benzamide], the inhibition at 10 μM against CYP 2C19, at CYP 2C8, at CYP 2D6, against CYP 3A4, at CYP 2C9 and against CYP 1A2 was < 50% in each case. Further, in data set [1], the IC50 is 1.4 nM.
As for `C=CC(=O)N1CC2CC(n3nc(-c4ccc5c(c4)CCS5)c4c(N)ncnc43)CC2C1` (stereo not drawn) [Compound 7, 1-(5-(4-amino-3-(2,3-dihydrobenzo[b]thiophen-5-yl)-1H-pyrazolo [3,4-d]pyrimidin-1-yl)hexahydrocyclopenta[c]pyrrol-2(1H)-yl)prop-2-en-1-one], the inhibition at 10 μM against CYP 2C19 is < 50%; against CYP 2C8 it was < 50%; at CYP 2D6, < 50%; against CYP 3A4, > 50%; on CYP 2C9, > 50%; at CYP 1A2, < 50%. The half-inhibitory concentration (IC50) in data set [1] turned out to be 6 nM.
In the case of `C=CS(=O)(=O)N1CC2CC(n3nc(-c4ccc(Oc5ccccc5)cc4)c4c(N)ncnc43)CC2C1` (stereo not drawn) [Compound 18, 3-(4-phenoxyphenyl)-1-(2-(vinylsulfonyl)octahydrocyclopenta[c]pyrrol-5-yl)-1H-pyrazolo[3,4-d]pyrimidin-4-amine], the inhibition at 10 μM on CYP 2C19 is < 50%; against CYP 2C8, > 50%; against CYP 2D6, < 50%; against CYP 3A4 it was > 50%; on CYP 2C9 it was > 50%; against CYP 1A2, < 50%. Also, the IC50 in data set [1] came to 218 nM.
Turning to `C=CC(=O)N1CC2CC(n3nc(-c4ccc(C(=O)Nc5cc(C)ccn5)cc4)c4c(N)ncnc43)CC2C1` (stereo not drawn) [Compound 30, 4-(1-(2-acryloyloctahydrocyclopenta[c]pyrrol-5-yl)-4-amino-1H-pyrazolo[3,4-d]pyrimidin-3-yl)-N-(4-methylpyridin-2-yl)benzamide], the inhibition at 10 μM on CYP 2C19, against CYP 2C8, against CYP 2D6, at CYP 3A4, against CYP 2C9 and at CYP 1A2 was < 50% each time. The IC50 in data set [1] was 6 nM.
Turning to `CN(C)C/C=C/C(=O)N1CC2CC(n3nc(-c4ccc(Oc5ccccc5)cc4)c4c(N)ncnc43)CC2C1` (stereo not drawn) [Compound 48, (E)-1-(5-(4-amino-3-(4-phenoxyphenyl)-1H-pyrazolo[3,4-d]pyrimidin-1-yl)hexahydrocyclopenta[c]pyrrol-2(1H)-yl)-4-(dimethylamino)but-2-en-1-one], the IC50 in data set [1] was 50 nM.
For the compound `C=CC(=O)N1CC2CC(n3nc(-c4ccc(-c5nnc(-c6ccccn6)o5)cc4)c4c(N)ncnc43)CC2C1` (stereo not drawn) [Compound 26, 1-(5-(4-amino-3-(4-(5-(pyridin-2-yl)-1,3,4-oxadiazol-2-yl)phenyl)-1H-pyrazolo[3,4-d]pyrimidin-1-yl)hexahydrocyclopenta[c]pyrrol-2(1H)-yl)prop-2-en-1-one], the inhibition at 10 μM against CYP 2C19, on CYP 2C8, against CYP 2D6, on CYP 3A4, at CYP 2C9 and on CYP 1A2 was < 50% throughout. In data set [1], the IC50 amounted to 1.1 nM.
On to `CN(C)C/C=C/C(=O)N1CC2CC(n3nc(-c4ccc(Oc5cccnc5)cc4)c4c(N)ncnc43)CC2C1` (stereo not drawn) [Compound 53, (E)-1-(5-(4-amino-3-(4-(pyridin-3-yloxy)phenyl)-1H-pyrazolo[3,4-d]pyrimidin-1-yl)hexahydrocyclopenta[c]pyrrol-2(1H)-yl)-4-(dimethylamino)but-2-en-1-one], for which the inhibition at 10 μM against CYP 2C19 was < 50%; against CYP 2C8 it was < 50%; on CYP 2D6, < 50%; against CYP 3A4, > 50%; against CYP 2C9, < 50%; at CYP 1A2, < 50%. Besides, the IC50 in data set [1] came out at 10 nM.
Turning to `C=CC(=O)N1CC2CC(n3nc(-c4ccc(C(=O)Nc5cc(C)ccn5)c(OC)c4)c4c(N)ncnc43)CC2C1` (stereo not drawn) [Compound 29, 4-(1-(2-acryloyloctahydrocyclopenta[c]pyrrol-5-yl)-4-amino-1H-pyrazolo[3,4-d]pyrimidin-3-yl)-2-methoxy-N-(4-methylpyridin-2-yl)benzamide], the inhibition at 10 μM against CYP 2C19, on CYP 2C8, at CYP 2D6, at CYP 3A4, against CYP 2C9 and on CYP 1A2 was < 50% each time. In addition, in data set [1], the IC50 was 1.2 nM.
